Values quoted from earlier work in US20060188878A1, “Methods to predict ederma as a side effect of drug treatment” (priority 2002, published 2006).

System: CML
[1] = of 54 CML patients treated with 300 mg or more

Compound: Cc1ccc(NC(=O)c2ccc(CN3CCN(C)CC3)cc2)cc1Nc1nccc(-c2cccnc2)n1 [Imatinib]
- Patients with complete cytogenetic remission [1]: 7
- Patients with complete hematologic responses [1]: 53
- Patients with cytogenic responses [1]: 29
- Patients with major cytogenetic responses (0-35% of cells in metaphase positive for the Ph′ chromosome) [1]: 17
- Patients with major cytogenetic responses, percent (of the 54 patients who received the dose (300 mg or more)): 31%
